Reference: patent US20110166070A1, “METHOD OF PREVENTING PREMATURE DELIVERY” (priority 2008, published 2011)

Tests used:
uterine contractions = settings: cited from earlier work; for stopping uterine contractions: vaginal progesterone, injection of 17 alpha-hydroxyprogesterone caproate
[1] = system: healthy primiparous women at ≧40 weeks gestation; assay: Clinical study: change from baseline in Bishop score and cervical dilation (cervical ripening), 24 h IV infusion; assay type: in vivo, human; set-up: key to Total Bishop Score - Change from Baseline, Minimum / Total Bishop Score - Change from Baseline, Maximum / Total Bishop Score - Change from Baseline, Mean / Total Bishop Score - Change from Baseline, Median: Bishop score points; total score ranges 0 to 13; settings: for Total Bishop Score - Change from Baseline, Maximum / Total Bishop Score - Change from Baseline, Median / Total Bishop Score - Change from Baseline, Minimum / Total Bishop Score - Change from Baseline, Mean: 75 μg/kg/d IV, ITT
Procedure: Overview of the Clinical Study. The current study was designed with two objectives. The first was to determine the safety of intravenous administration of recombinant human relaxin in women at term for 24 hours. The second objective was to determine whether a high dose of relaxin administered by this method for 24 hours could ripen the cervix or induce labor. The primary efficacy endpoint was change from baseline in Bishop score, which is a composite, well accepted measurement of cervical ripening (Bishop, 1964). The score has 5 components, all of which contribute to the cervical changes necessary for vaginal delivery of the baby: dilation, effacement, station, consistency and position of cervix.
Study Subjects. Study subjects were healthy primiparous women at ≧40 weeks gestation who were admitted to the hospital for scheduled induction of labor. This study was conducted in compliance with the requirements of the protocol, International Conference on Harmonization (ICH), Good Clinical Practices (GCP), FDA, local regulations and BAS Medical, Inc.'s standard operating procedures (SOP). The investigators were responsible for obtaining informed consent from each patient participating in the study. All pertinent aspects of the study were explained to the patient before he or she signed the informed consent form. Informed consent was approved by local ethics committees and was obtained from the patient before any activity or treatment was undertaken which was not part of routine care. This included, but was not limited to, the performance of diagnostic or therapeutic procedures and the administration of the first dose of the study medication.
Part A was a multicenter, randomized, double-blind, placebo-controlled, dose escalation study of 18 subjects at ≧40 weeks gestation and who were scheduled for induction. Doses of 7.5, 25 and 75 mcg/kg/day of relaxin were tested. Subjects were treated in cohorts of 6 and randomly assigned to receive relaxin or placebo in a 4:2 ratio, respectively. Dose escalation to the next dose level occurred once safety data was reviewed.
(§1) Eligible patients were admitted to the hospital at least 24-hours prior to scheduled induction. Either relaxin or matching placebo was administered by continuous intravenous infusion for 24 hours prior to induction. Subjects were monitored throughout the administration of study medication for blood pressure and heart rate, as well as for uterine contractions and the onset of labor. Fetal nonstress testing and heart rate monitoring were conducted for evaluation of fetal well-being. Blood samples were drawn for serum chemistry and hematology at baseline, 12 and 24 hr of dosing, and at 2 days, 1 week and 4 weeks after delivery. Samples for the evaluation of serum relaxin levels were drawn at baseline, 30 minutes, 1, 4, 6, 12, and 24 hr of dosing and a sample of cord blood was also drawn for relaxin measurement. A sample was also drawn from the study subject at 2 days post-delivery. Samples for measurement of development of anti-relaxin antibodies were drawn prior to dosing and at 1 and 4 weeks post-delivery. Neonates were evaluated for relaxin levels at 2 days and for the presence of anti-relaxin antibodies at 1 and 4 weeks.
(§2) Part B of the study was a multi-center, randomized, double-blind, placebo-controlled, parallel-group study of 50 subjects at ≧40 weeks gestation and who were scheduled for induction. Subjects were randomized in a 1:1 ratio to the most appropriate dose of relaxin determined from Part A or to placebo. As in Part A, eligible subjects were administered an intravenous infusion of relaxin or placebo for 24 hours prior to induction. Subjects and neonates were evaluated in a manner identical to that in Part A for all assessments.
The primary efficacy endpoint was change from baseline in Bishop score at 6, 12 and 24 hours (or end of study drug administration). […]

[2] = system: healthy primiparous women at ≧40 weeks gestation; assay: Clinical study: secondary efficacy endpoints related to delivery; assay type: in vivo, human
Procedure: as §1, §2
The primary efficacy endpoint was change from baseline in Bishop score at 6, 12 and 24 hours (or end of study drug administration). The score ranges from 0 (absence of any cervical changes) to a maximum of 13, representing a cervix that is completely dilated (>5 cm), effaced (>80%), soft, at a +1 or +2 station, and anteriorly positioned (Bishop, 1964). A number of secondary efficacy endpoints were also explored: Time to complete dilation; proportion of subjects with Bishop score change>3; proportion of subjects with Bishop score>5; proportion of subjects with Bishop score>8; time to active labor; time to delivery (vaginal or c-section); frequency of uterine contractions; incidence of uterine hyperstimulation requiring terbutaline treatment or discontinuation of study drug (relaxin or placebo) infusion; incidence of spontaneous labor; rates of c-section; incidence of abnormal fetal heart rate tracings; changes from baseline in systolic and diastolic blood pressure; changes from baseline in serum creatinine and predicted creatinine clearance as determined by the Cockroft-Gault formula.
Statistical Analysis. Analyses were conducted on the Intent-to-treat (ITT) population, which consisted of all randomized subjects and on the Per-protocol (PP) population, which consisted of all randomized subjects who received study medication for at least 18 hours (75% compliance) and had baseline and 24 hour (or end of treatment) assessments of the Bishop Score. For efficacy comparisons, the patients from Part A that received the active dose administered in Part B are pooled with the patients from Part B (pooled relaxin group) as are all placebo patients from parts A and B (pooled placebo group).

[3] = Serum relaxin concentrations (Relaxin ELISA); assay type: in vivo, human
Procedure: as §1
Relaxin ELISA. The measurement of serum relaxin concentrations is based on an enzyme immunoassay technique using 96-well microtiter plates coated with affinity purified goat-anti-relaxin antibodies. Pre-diluted controls and unknown samples were pipetted into the wells of the microtiter plate and incubated at 2-8° C. allowing for any relaxin present to bind to the anti-relaxin antibodies. After an overnight incubation the plates were washed to remove any non-reactive serum components. […] After a 20-minute incubation, an aliquot of 2M sulfuric acid was added to stop the color reaction and the absorbance was measured at 450 nm (reference 650 nm) using a plate spectrophotometer. […] The relaxin levels were quantified according to a standard curve generated by measuring purified recombinant relaxin in a 20% human serum matrix utilizing a four-parameter curve fit equation. […]

[4] = system: healthy primiparous women at ≧40 weeks gestation; assay: Clinical study: safety (adverse events in subjects, fetuses, neonates); assay type: in vivo, human; settings: for Serious adverse events in neonates (number): none related to the study drug
Procedure: Safety. Safety was assessed by means of reported and observed adverse events, physical examination and 12-lead ECG findings, vital sign measurements, and the results of clinical laboratory assessments. Serum clinical chemistry samples were taken at pre-dose, 12 and 24 hours following the start of dosing, 2 days, 1 week and 4 weeks postpartum. Maternal vital signs included temperature, heart rate and blood pressure. These evaluations were performed at screening, pre-dose, during dosing, 24-48 hours post-dosing and at 2 days, 1 week and 4 weeks post-partum. Measurements during the 24-48 hours post-dosing period were taken at 28, 32, 36, 40, 44 and 48 hours. Neonatal vital signs included temperature, pulse, respiration and blood pressure. All vital signs measurements were done at delivery, 2 days, 1 week and 4 weeks post-partum.
Adverse events in study subjects were recorded according to the time of onset, i.e. dosing period (0-24 hours), 24-hours post-infusion (24-48 hours) and follow-up (>48 hours). Adverse events reported in fetuses and in neonates were also summarized by treatment group. For laboratory tests (hematology, serum chemistry, urinalysis), vital signs, physical examination and ECGs summary statistics were provided for baseline and changes from Baseline for each scheduled time by treatment group. Post-hoc repeated measure analyses of systolic and diastolic blood pressure were also performed.

myometrium = settings: in vitro, nonpregnant and pregnant uteri (MacLennan 1991); cited from earlier work
nonpregnant women = settings: administered intravaginally, cited from earlier work
women = settings: cited from earlier work
[5] = Last Obs., pooled relaxin group
[6] = pooled relaxin group, p 0.153 vs placebo
[7] = pooled relaxin group, p 0.213 vs placebo

Molecule: CCCCCC(=O)O[C@]1(C(C)=O)CC[C@H]2[C@@H]3CCC4=CC(=O)CC[C@]4(C)[C@H]3CC[C@@]21C [17 alpha-hydroxyprogesterone caproate]
- safety questioned by the FDA (uterine contractions; Meis et al. 2003, FDA advisory committees 2006): increase in miscarriage and fetal death
- stopping uterine contractions (uterine contractions): effective in stopping uterine contractions

Molecule: relaxin
- Total Bishop scores in the lower relaxin dose groups ([1]; 7.5 and 25 μg/kg/day, Part A, data not shown): no different than that seen in the pooled placebo group
- Total Bishop Score - Change from Baseline, Maximum ([1]; 6 hours, pooled relaxin group): 9
- Total Bishop Score - Change from Baseline, Median ([1]; 6 hours, pooled relaxin group): 1.00
- Total Bishop Score - Change from Baseline, Minimum ([1]; 6 hours, pooled relaxin group): 0
- Total Bishop Score - Change from Baseline, Mean ([1]; 6 hours, pooled relaxin group, P 0.2407 vs pooled placebo): 1.55
- Total Bishop Score - Change from Baseline, Maximum ([1]; 12 hours, pooled relaxin group): 7
- Total Bishop Score - Change from Baseline, Median ([1]; 12 hours, pooled relaxin group): 2.00
- Total Bishop Score - Change from Baseline, Minimum ([1]; 12 hours, pooled relaxin group): 0
- Total Bishop Score - Change from Baseline, Mean ([1]; 12 hours, pooled relaxin group, P 0.1085 vs pooled placebo): 2.11
- increase in cervical dilation from the initial dilation ([1]; 24 hour time point, pooled relaxin group 75 mcg/kg/day IV (placebo 1.39 cm)): 0.69 cm
- Total Bishop Score - Change from Baseline, Maximum ([1]; 24 hours, pooled relaxin group): 7
- Total Bishop Score - Change from Baseline, Median ([1]; 24 hours, pooled relaxin group): 4.00
- Total Bishop Score - Change from Baseline, Minimum ([1]; 24 hours, pooled relaxin group): 0
- Total Bishop Score - Change from Baseline, Mean ([1]; 24 hours, pooled relaxin group, P 0.2507 vs pooled placebo): 3.26
- Total Bishop Score - Change from Baseline, Mean ([1]; Last Obs. (last available value post-baseline), pooled relaxin group, P 0.4900 vs pooled placebo): 3.59
- Total Bishop Score - Change from Baseline, Maximum [1, 5]: 9
- Total Bishop Score - Change from Baseline, Median [1, 5]: 4.00
- Total Bishop Score - Change from Baseline, Minimum [1, 5]: 0
- Bishop score, difference between pooled relaxin and placebo groups ([1]; any of the observation times (6, 12, 24 hours)): no statistically significant differences
- cervical dilation compared to the placebo group ([1]; pooled relaxin group, p<0.024 by t-test): significantly reduced
- Time to Vaginal Delivery (mean + SD) ([2]; pooled relaxin group, n = 20, p 0.644 vs placebo): 62 ± 40 h
- Time to Onset of Active Labor ([2]; pooled relaxin group, n = 26, p 0.412 vs placebo): 53 h
- Time to Delivery for Vaginal + C-section (mean + SD) ([2]; pooled relaxin group, n = 29, p 0.251 vs placebo): 69 ± 40 h
- Incidence of Vaginal Deliveries [2, 6]: (69%)
- Incidence of Vaginal Deliveries (subjects/total) [2, 6]: 20/29
- Incidence of Spontaneous Labor [2, 7]: (41%)
- Incidence of Spontaneous Labor (subjects/total) [2, 7]: 12/29
- effect on incidence or time to vaginal delivery, incidence of spontaneous labor or time to the onset of labor ([2]; relaxin infusion vs placebo): did not significantly affect
- serum relaxin concentration post partum ([3]; 2 days post partum): just above levels of detection
- peak mean serum relaxin concentration ([3]; relaxin group, 75 mcg/kg/day IV infusion, at 12 hours of dosing): 13.0 ng/mL
- Mean serum relaxin concentration at baseline ([3]; relaxin group, baseline, reflecting endogenous relaxin levels): 0.293 ng/mL
- Serious adverse events in neonates (number) ([4]; 7.5 mcg/kg/d dose group): one
- adverse effects over the entire dosage range ([4]; intravenous, 7.5-75 mcg/kg/day, pregnant women at term): no relevant adverse effects
- Serious adverse events in neonates (number) ([4]; pooled relaxin group (75 mcg/kg/day)): 4
- Serious adverse events in fetuses (number of events) ([4]; pooled relaxin group, fetal hypoxia of moderate severity, not related to the study drug): Two
- effect on fetal heart rate ([4]; relaxin treatment): no effect
- effect on myometrial contractions (myometrium): inhibits myometrial contractions of nonpregnant uteri, but does not affect the myometrium of pregnancy
- effect on cervical ripening (nonpregnant women; nonpregnant women): did not show any effect
- safety of administration (nonpregnant women): safe and associated with minimal adverse side effects
- serum levels of relaxin after treatment (nonpregnant women): did not increase

Molecule: porcine relaxin
- spontaneous labor (women; intracervical gel vs placebo (MacLennan 1986)): more likely to go into spontaneous labor
- cervical effacement and time to delivery (women; intracervical pellet, randomized double-blind controlled trial (Evans et al. 1983)): greater cervical effacement (thinning) and a shorter time to delivery

Molecule: CC(=O)[C@H]1CC[C@H]2[C@@H]3CCC4=CC(=O)CC[C@]4(C)[C@H]3CC[C@]12C [progesterone]
- stopping uterine contractions (uterine contractions): effective in stopping uterine contractions
